In assay [1] the test system is human platelet rich plasma. Briefly: Collagen-induced platelet aggregation in vitro in human platelet rich plasma (method of Born and O'Brien), change in optical density. Type of assay: cell-based. Conditions: collagen 500 mcg./ml., read-out: Percent Inhibition (of maximum aggregation response to collagen in a control sample). The procedure: Various concentrations of the compound were added in vitro to human platelet rich plasma. Collagen (final concentration 500 mcg./ml.) was added to induce platelet aggregation. Inhibition of platelet aggregation was determined by measuring the change in the optical density of the platelet rich plasma.

For assay [2], the system named is pain. Conditions: warm-blooded animals; U.S. Pat. No. 3,784,704; cited from earlier work.
For assay [3], the system named is respiratory depression associated with platelet aggregation and thrombosis induced by arachidonic acid. Briefly: Respiratory depression induced by arachidonic acid in mice. Type of assay: in vivo. The procedure: Two hours later a challenge dose of arachidonic acid was given to the mice intravenously at a concentration of 50 mg./kg. The period of respiratory distress for each animal was recorded in seconds by observation. The results appear in Table III in comparison with controls who received only starch vehicle.

Assay [4] relates to platelet rich plasma. The assay is described as follows: Collagen-induced aggregation of platelet rich plasma from orally treated male rats. Type of assay: in vivo. Conditions: Rattus norvegicus, po, 2 h, 100 mg./kg. orally, bled after one to two hours, collagen 500 mcg./ml., read-out: Percent Inhibition of aggregation. On the procedure: In a second test the in vivo activity of the compound was established. In this test the compound was administered orally to male rats at a concentration of 100 mg./kg. After one to two hours, the rats were bled and platelet rich plasma obtained. Collagen, at a concentration of 500 mcg./ml. was added to induce platelet aggregation and comparisons were made between control and treated samples. The percent inhibition of aggregation produced by the compound of this invention appears in Table II.

Each structure is given as a SMILES string. Values joined by “and” are separate entries in the source; they are usually repeats but may differ in a detail not shown here. Equal entries are not always repeated.

Consider `O=C(O)Cc1ccc(-c2ccccc2)cc1` [4-Biphenylacetic acid], for which the inhibition (commonly the drop in the measured response relative to a control, in per cent) at 25 µg/mL in assay [1] (concentration 25 mcg./ml.) was 38.6%. Moreover, the inhibition at 250 µg/mL in assay [1] (concentration 250 mcg./ml.) is 40.7%. The “amelioration of pain (in words)” value in assay [2] is on record as “long lasting amelioration of pain”. Besides, the “period of respiratory distress, Average, Treated” value in assay [3] (100 mg./kg. orally, arachidonic acid 50 mg./kg. i.v. two hours later, average of 21 treated animals (controls 7.58 minutes)) came to 1.93 min. The “period of respiratory distress, Time in Seconds, Treated (individual animals)” value in assay [3] (100 mg./kg. orally, arachidonic acid 50 mg./kg. i.v. two hours later, individual animals 1-21, one line each in order) is 420 s and 200 s and 30 s and 150 s and 170 s and 80 s and 195 s and 125 s and 35 s and 120 s and 25 s and 20 s and 60 s and 50 s and 90 s and 75 s and 70 s and 189 s and 100 s. Also, the “inhibition of respiratory depression induced by arachidonic acid (in words)” value in assay [3] (in vivo) is on record as “inhibits the respiratory depression”. In assay [4], the inhibition at 100 mg/kg is 12%.

The record behind these values is patent US3966978A (American Cyanamid Company, priority 1975, dated 1976).
